Measurements: patent publication US20260263334A1, “COMPOSITIONS CONTAINING NITRATE-RICH FOODS AND EXTRACTS FOR SHIFTING THE ORAL MICROBIOME” (WM. WRIGLEY JR. COMPANY, priority 2023, published 2026)

What was measured:
[1] = tested on: salivary bacteria; test: nitrate reductase (NR) activity of human salivary bacteria (Griess reagent); type: cell-based
Protocol: Human stimulated saliva was collected from two subjects and tested for NR activity in the presence of nitrate, cysteine and a combination of nitrate and cysteine. The Griess test was used for nitrite production.
Two subjects were evaluated in this study. The subjects refrained from oral hygiene and eating the night before and morning of the test and their stimulated saliva was collected after chewing 1 g of gum base for 5 minutes. The saliva samples were stored immediately on ice, diluted 1:1 with D.I. H2O and used as a bacterial source for nitrate reductase (NR) activity testing under anaerobic condition.
The contents in each reaction mixture contained (mL):
Detection of the end product of NR and nitrite was by the Griess reagent at OD550 nm readings.

[2] = tested on: Veillonella atypica (ATCC 17744) (V.a.); test: nitrate reductase (NR) activity of V.a (Griess test); type: cell-based; conditions: Cysteine 1%
Protocol: (§1) For evaluation of nitric oxide producing capability of oral bacteria, overnight cultures of test organisms were washed once and transferred into a medium without any nitrate or nitrite compounds. A 0.5% (or 1%) KNO3 was added to the medium, and further incubated anaerobically at 37° C. for 24-48 hours. The concentration of nitrite (due to reduction of nitrate by nitrate reductase) was determined by Griess Test over a desired period of time.
(§2) To examine the effect of natural and chemical antimicrobial agents on NO production, test bacteria were pre-exposed to magnolia bark extract (MBE) (a natural germ-kill compound), peppermint oil, and chlorhexidine (CHX). The activities of nitrate reductase from oral bacteria were assayed by Griess test as described above. No treatment controls were included for each test bacterial species. The production of nitrite was reduced if the test antimicrobial compounds affected the nitrate reductase activity. Dose response curves were prepared.
V. atypica was grown in RCM medium without (NH4)2SO4 (to avoid the NH4 affecting Griess reagent); and without agar (0.05%, to avoid affecting the OD measurement).
The method used was the same as that for A.a., except the V.a cell concentration was adjusted to OD550 nm=0.7 (10^8 CFR/ml) in Reduced Transport buffer. The NR activity was also determined in the same buffer system. […]
(§3) Test bacteria cells were incubated with 1% cysteine in growth medium and 0.3% of a nitrate source. Controls contained no cysteine.

[3] = tested on: saliva; test: ex vivo production of H2S by saliva (headspace, gas chromatograph with chemiluminescent sulfur detector); type: cell-based, human; conditions: saliva mixed with cysteine
[4] = tested on: Aggregatibacter actinomycetemcomitans (A.a.); test: nitrate reductase (NR) activity of A.a. (Griess test); type: cell-based; conditions: for NR activity (OD) of A.a in the presence of cysteine: Cysteine 1%, 0.3% nitrate source
Protocol: as §1, §2
A. actinomycetemcomitans (A.a.) was grown anaerobically in THB broth supplemented with 1% yeast extract with 0.001% Hemin, and 0.0001% Vitamin K.
The nitrate source KNO3 (0.1% final) was added to respective growth media for individual test bacteria and incubated for 24-48 hours, then 20 μl of the culture broth was withdrawn and tested for nitrite with Griess reagent.
Test bacteria were grown in respective media anaerobically for 48 hours. Cells were centrifuged and re-suspended in buffer or fresh medium for NR activity testing. […]
as §3

Row | Structure (SMILES) | NR activity of salivary bacteria (nitrite production) ([1]; KNO3 3%, saliva of two subjects) | NR activity (OD) of V.a in the presence of cysteine ([2]; 1st trial, 2 hr) | NR activity (OD) of V.a in the presence of cysteine ([2]; 1st trial, 3 hr) | NR activity (OD) of V.a in the presence of cysteine ([2]; 2nd trial, 2 hr) | NR activity (OD) of V.a in the presence of cysteine ([2]; 2nd trial, 3 hr) | NR activity (OD) of V.a in the presence of cysteine ([2]; 3rd trial, 2 hr) | NR activity (OD) of V.a in the presence of cysteine ([2]; 3rd trial, 3 hr) | H2S generated in the headspace air [3] | reduction of NR activity ([1]; addition of cysteine, pooled saliva from 4 subjects, OD600 nm=0.7, 1.0 and 1.5) | NR activity of salivary bacteria ([1]; cysteine 0.25% in addition to nitrate (KNO3 3%), saliva of two subjects) | NR activity (OD) of A.a in the presence of cysteine ([4]; 1st trial, 2 hr) | NR activity (OD) of A.a in the presence of cysteine ([4]; 1st trial, 3 hr) | NR activity (OD) of A.a in the presence of cysteine ([4]; 2nd trial, 2 hr) | NR activity (OD) of A.a in the presence of cysteine ([4]; 2nd trial, 3 hr) | NR activity (OD) of A.a in the presence of cysteine ([4]; 3rd trial, 2 hr) | NR activity (OD) of A.a in the presence of cysteine ([4]; 3rd trial, 3 hr) | NR activity of A.a ([4]; addition of cysteine (1%))
1 | O=[N+]([O-])[O-].[K+] [KNO3, potassium nitrate] | induced NR activity |  |  |  |  |  |  |  |  |  |  |  |  |  |  |  | 
2 | N[C@@H](CS)C(=O)O [cysteine, L-cysteine] |  | 0.372 OD | 0.711 OD | 0.487 OD | 0.808 OD | 1.139 OD | 1.144 OD | 20 ppm | 23-49% | decrease in NR activity | 0.207 OD | 0.672 OD | 0.994 OD | 0.928 OD | 0.832 OD | 0.919 OD | not significantly affected
